Assay results from article PMC10949855 (Journal of veterinary pharmacology and therapeutics, 2022).

Assays:
[1] = tested on: healthy dogs; test: Rectal temperature change from baseline; assay type: in vivo, dogs (Beagles); conditions: SC 0.4 mg/kg, n=6, P<0.05
[2] = tested on: dogs; conditions: cited from earlier work
[3] = tested on: dogs; conditions: SC, ref Pircio et al., 1976; cited from earlier work
[4] = tested on: dogs undergoing soft tissue surgery; conditions: 0.4 mg/kg IV, ref Gomes et. al., 2020; cited from earlier work
[5] = tested on: healthy dogs; test: Adverse effects observed after administration; conditions: SC 0.4 mg/kg
[6] = Pharmacokinetics of butorphanol in plasma; conditions: for AUC(0-inf): AUCinf
[7] = 0.4 mg/kg IV, ref Wegner et al., 2008
[8] = both, Beagle, dog, in vivo, iv, 0.4 mg/kg, IV bolus 0.4 mg/kg IV, geometric mean, n=6
[9] = both, Beagle, dog, in vivo, sc, 0.4 mg/kg
[10] = both, Beagle, dog, in vivo, sc, 0.4 mg/kg, SC 0.4 mg/kg, geometric mean, n=6

## Oc1ccc2c(c1)[C@@]13CCCC[C@@]1(O)[C@@H](C2)N(CC1CCC1)CC3 [butorphanol]
[1]
  statistically significant decrease in rectal temperature compared to baseline: did not occur
[2]; [7]
  thermal antinociception compared to hydromorphone at 0.1 mg/kg IV: equianalgesic peak effects and duration
  time of peak effect, thermal antinociception: 1 h
[2]; IV, ref Wegner et al 2008
  time of peak antinociceptive effect after IV administration: 60 min
[3]
  dose of maximum effect on miosis: 0.25 mg/kg
[4]
  analgesia in clinical trial: insufficient analgesia
[5]
  hypersalivation: 2/6
[6]; IV CRI: 0.2 mg/kg IV loading dose then 0.2 mg/kg/hr for 8 hours, geometric mean, n=5
  Css (steady state plasma concentration): 43.1 ng/mL
[6]; IV bolus 0.4 mg/kg IV, geometric mean, n=6
  AUC extrapolated: 1.0%
[6]; SC 0.4 mg/kg, geometric mean, n=6
  AUC extrapolated: 2.5%
[6]; both, Beagle, dog, in vivo, half-life, dogs, overall statement of abstract
  half-life: ~1.5 h
[6]; both, Beagle, dog, in vivo, iv, 0.4 mg/kg
  concentration at 5 min: 144 ng/mL
[6]; [8]
  AUC(0-inf): 143 ng·h/mL
  MRT: 1.26 h
[6]; both, Beagle, dog, in vivo, iv, 0.4 mg/kg, C0, IV bolus 0.4 mg/kg IV, geometric mean, n=6
  C0: 183 ng/mL
[6]; both, Beagle, dog, in vivo, iv, 0.4 mg/kg, Cl, IV bolus 0.4 mg/kg IV, geometric mean, n=6
  clearance: 46.5 mL/min/kg
[6]; both, Beagle, dog, in vivo, iv, 0.4 mg/kg, T ½ λz, IV bolus 0.4 mg/kg IV, geometric mean, n=6
  half-life: 1.47 h
[6]; both, Beagle, dog, in vivo, iv, 0.4 mg/kg, Vss, IV bolus 0.4 mg/kg IV, geometric mean, n=6
  Vd: 3.51 L/kg
[6]; both, Beagle, dog, in vivo, iv, 0.4 mg/kg, Vz, IV bolus 0.4 mg/kg IV, geometric mean, n=6
  Vd: 5.91 L/kg
[6]; both, Beagle, dog, in vivo, iv, 0.4 mg/kg, λz, IV bolus 0.4 mg/kg IV, geometric mean, n=6
  k el: 0.000131 s⁻¹
[6]; both, Beagle, dog, in vivo, iv, T ½ λz, IV CRI: 0.2 mg/kg IV loading dose then 0.2 mg/kg/hr for 8 hours, geometric mean, n=5
  half-life: 1.42 h
[6]; both, Beagle, dog, in vivo, iv, λz, IV CRI: 0.2 mg/kg IV loading dose then 0.2 mg/kg/hr for 8 hours, geometric mean, n=5
  k el: 0.000136 s⁻¹
[6]; [9]
  Cmax: 74.2 ng/mL
  TMAX: 0.21 h
[6]; [10]
  AUC(0-inf): 123 ng·h/mL
  MRT: 2.09 h
[6]; both, Beagle, dog, in vivo, sc, 0.4 mg/kg, T ½ λz, SC 0.4 mg/kg, geometric mean, n=6
  half-life: 1.83 h
[6]; both, Beagle, dog, in vivo, sc, 0.4 mg/kg, Λz, SC 0.4 mg/kg, geometric mean, n=6
  k el: 0.000105 s⁻¹
